# Results taken from patent US20100041089A1, “IMPROVED METHOD FOR DETECTING CHEMICAL […]” (priority 2006, published 2010).
# System: yeast genes (expressed mRNA)
# Test: DNA chip measurement of expressed mRNA of yeast genes after culture with a toxic chemical substance
# Format: cell-based, Saccharomyces cerevisiae S288C
# Procedure: Yeast (Saccharomyces cerevisiae S288C (a SUC2mal mel gap2 CUP1)) were cultured at 25° C. on YPD medium (yeast extract 1%, polypeptone 2%, glucose 2%). One of toxic chemical substances was added to the cell at logarithmic growth phase, and the cell was further cultured for two hours. Cell was cultured without any chemical substance in the same condition, and was used as a control. Concentrations of the chemical substances were defined to inhibit the growth of the yeast but not lead to death.
# After the completion of cultivation, the culture was centrifuged to collect the cells. To the cells, sodium acetate buffer (50 mM sodium acetate, 10 mM EDTA, 1% SDS) was added, and the mixture was shaken at 65° C. for five minutes, followed by returning to room temperature, and obtaining the supernatant, which procedure was repeated two times. To the supernatant, ½ amount of a solution of phenol/chloroform (1:1) was added, and the mixture was centrifuged to give a supernatant, an equal amount of chloroform was added, and the mixture was centrifuged to give a supernatant. To the supernatant, an equal amount of isopropanol containing 0.3 M sodium acetate was added, and the mixture was allowed to stand at room temperature for 30 minutes, after which the mixture was centrifuged to give sediment of the whole RNAs. Seventy % ethanol was added to the sediment, and the mixture was again centrifuged to give sediment, which was then dried and dissolved in water. mRNA was isolated from the whole RNAs as followings. In view of the fact that a poly A chain is attached to the 3′ terminus of mRNA, a polynucleotide having a poly T structure which was immobilized on the surface of latex beads was used to trap the mRNA, and then the mRNA was washed and eluted with spine column (Oligotex-dT30<Super>mRNA Purification Kit, Takara). Reverse transcription of the mRNA was conducted with a reverse transcriptase (Super Script II Reverse Transcriptase; catalogue No. 18064-014, GibcoBRL) using fluorescence-labeled nucleotides to give cDNAs that were introduced with Cy3-dUTP or Cy5-dUTP during the reverse transcription.
# The labeled cDNAs were dissolved in TE buffer (10 mM Tris-HCl/1 mM EDTA, pH 8.0), and the solution was dropped on the DNA chip containing the whole genes of yeast (DNA Chip Research Inc. Japan) so that the cDNAs were hybridized on the DNA chip at 65° C. for over 12 hours. The fluoresces intensity of the DNA chip was read with a scanner, and the ratio relative to the fluorescence intensity resulting from the absence of chemical substance was estimated as the following, which is shown in Tables 1 to 9.
# In the Tables, “Intensity” indicated in the rightmost column is a value of the level of expressed mRNA of each gene in control cells as divided by the average level of the expressions of the whole genes. A gene of which mRNA level is lower in control, and is higher in cases of addition of chemical substance, is especially useful in the detection of toxic substances.
# Here, when a ratio of an amount of mRNA expressed in the presence of the chemical substance to an amount of mRNA expressed in the absence of the chemical substance is two or more, then it is considered significant.
structure (smiles),measurement,setting,value
"N#Cc1c(Cl)c(Cl)c(Cl)c(C#N)c1Cl [(9), 2,4,5,6-Tetrachloro-1,3-benzenedicarbonitrile]",The level of expressed mRNA in the presence of chemical substance/The level of expressed mRNA in the absence of chemical substance,"yeast gene YMR316W, cultured two hours with substance",2.1
same,The level of expressed mRNA in the presence of chemical substance/The level of expressed mRNA in the absence of chemical substance,"yeast gene YMR322C, cultured two hours with substance",21.3
same,The level of expressed mRNA in the presence of chemical substance/The level of expressed mRNA in the absence of chemical substance,"yeast gene YNL044W, cultured two hours with substance",0.8
same,The level of expressed mRNA in the presence of chemical substance/The level of expressed mRNA in the absence of chemical substance,"yeast gene YNL074C, cultured two hours with substance",1.5
same,The level of expressed mRNA in the presence of chemical substance/The level of expressed mRNA in the absence of chemical substance,"yeast gene YNL092W, cultured two hours with substance",2.3
same,The level of expressed mRNA in the presence of chemical substance/The level of expressed mRNA in the absence of chemical substance,"yeast gene YNL115C, cultured two hours with substance",2.6
same,The level of expressed mRNA in the presence of chemical substance/The level of expressed mRNA in the absence of chemical substance,"yeast gene YNL117W, cultured two hours with the chemical substance",12.8
same,The level of expressed mRNA in the presence of chemical substance/The level of expressed mRNA in the absence of chemical substance,"yeast gene YNL156C, cultured two hours with substance",2.4
same,The level of expressed mRNA in the presence of chemical substance/The level of expressed mRNA in the absence of chemical substance,"yeast gene YNL190W, cultured two hours with substance",1.1
same,The level of expressed mRNA in the presence of chemical substance/The level of expressed mRNA in the absence of chemical substance,"yeast gene YNL208W, cultured two hours with substance",2.3
same,The level of expressed mRNA in the presence of chemical substance/The level of expressed mRNA in the absence of chemical substance,"yeast gene YNL234W, cultured two hours with substance",2.6
same,The level of expressed mRNA in the presence of chemical substance/The level of expressed mRNA in the absence of chemical substance,"yeast gene YNL281W, cultured two hours with substance",2.8
same,The level of expressed mRNA in the presence of chemical substance/The level of expressed mRNA in the absence of chemical substance,"yeast gene YNL305C, cultured two hours with substance",2.9
same,The level of expressed mRNA in the presence of chemical substance/The level of expressed mRNA in the absence of chemical substance,yeast gene YNL331C,42.6
same,The level of expressed mRNA in the presence of chemical substance/The level of expressed mRNA in the absence of chemical substance,"yeast gene YNL331C, cultured for two hours with substance",42.6
same,The level of expressed mRNA in the presence of chemical substance/The level of expressed mRNA in the absence of chemical substance,"yeast gene YNR068C, cultured two hours with substance",6.7
same,The level of expressed mRNA in the presence of chemical substance/The level of expressed mRNA in the absence of chemical substance,"yeast gene YOL030W, cultured two hours with the chemical substance",1.2
same,The level of expressed mRNA in the presence of chemical substance/The level of expressed mRNA in the absence of chemical substance,"yeast gene YOL032W, cultured two hours with substance",4.5
same,The level of expressed mRNA in the presence of chemical substance/The level of expressed mRNA in the absence of chemical substance,"yeast gene YOL036W, cultured two hours with substance",3.1
same,The level of expressed mRNA in the presence of chemical substance/The level of expressed mRNA in the absence of chemical substance,"yeast gene YOL047C, cultured two hours with substance",0.6
same,The level of expressed mRNA in the presence of chemical substance/The level of expressed mRNA in the absence of chemical substance,"yeast gene YOL071W, cultured two hours with substance",4.4
same,The level of expressed mRNA in the presence of chemical substance/The level of expressed mRNA in the absence of chemical substance,"yeast gene YOL082W, cultured two hours with substance",3.4
same,The level of expressed mRNA in the presence of chemical substance/The level of expressed mRNA in the absence of chemical substance,"yeast gene YOL083W, cultured two hours with substance",2.7
same,The level of expressed mRNA in the presence of chemical substance/The level of expressed mRNA in the absence of chemical substance,"yeast gene YOL117W, cultured two hours with substance",1.3
same,The level of expressed mRNA in the presence of chemical substance/The level of expressed mRNA in the absence of chemical substance,"yeast gene YOL131W, cultured two hours with substance",8.4
same,The level of expressed mRNA in the presence of chemical substance/The level of expressed mRNA in the absence of chemical substance,"yeast gene YOL150C, cultured two hours with substance",10.8
same,The level of expressed mRNA in the presence of chemical substance/The level of expressed mRNA in the absence of chemical substance,"yeast gene YOL162W, cultured two hours with substance",12.0
same,The level of expressed mRNA in the presence of chemical substance/The level of expressed mRNA in the absence of chemical substance,yeast gene YOL165C,46.9
same,The level of expressed mRNA in the presence of chemical substance/The level of expressed mRNA in the absence of chemical substance,"yeast gene YOL165C, cultured for two hours with substance",46.9
same,The level of expressed mRNA in the presence of chemical substance/The level of expressed mRNA in the absence of chemical substance,"yeast gene YOR019W, cultured two hours with substance",3.5
same,The level of expressed mRNA in the presence of chemical substance/The level of expressed mRNA in the absence of chemical substance,"yeast gene YOR197W, cultured two hours with substance",0.8
same,The level of expressed mRNA in the presence of chemical substance/The level of expressed mRNA in the absence of chemical substance,"yeast gene YOR215C, cultured two hours with substance",2.1
same,The level of expressed mRNA in the presence of chemical substance/The level of expressed mRNA in the absence of chemical substance,"yeast gene YOR228C, cultured two hours with substance",1.4
same,The level of expressed mRNA in the presence of chemical substance/The level of expressed mRNA in the absence of chemical substance,"yeast gene YOR248W, cultured two hours with substance",0.1
same,The level of expressed mRNA in the presence of chemical substance/The level of expressed mRNA in the absence of chemical substance,"yeast gene YOR382W, cultured two hours with substance",1.1
same,The level of expressed mRNA in the presence of chemical substance/The level of expressed mRNA in the absence of chemical substance,"yeast gene YOR391C, cultured two hours with substance",18.8
same,The level of expressed mRNA in the presence of chemical substance/The level of expressed mRNA in the absence of chemical substance,"yeast gene YPL052W, cultured two hours with substance",2.0
same,The level of expressed mRNA in the presence of chemical substance/The level of expressed mRNA in the absence of chemical substance,"yeast gene YPL087W, cultured two hours with substance",1.0
same,The level of expressed mRNA in the presence of chemical substance/The level of expressed mRNA in the absence of chemical substance,"yeast gene YPL194W, DNA repair protein genes, cultured two hours with substance",9.6
same,The level of expressed mRNA in the presence of chemical substance/The level of expressed mRNA in the absence of chemical substance,"yeast gene YPL196W, cultured two hours with substance",10.9
same,The level of expressed mRNA in the presence of chemical substance/The level of expressed mRNA in the absence of chemical substance,"yeast gene YPL206C, cultured two hours with substance",1.7
same,The level of expressed mRNA in the presence of chemical substance/The level of expressed mRNA in the absence of chemical substance,"yeast gene YPL222W, cultured two hours with substance",7.4
same,The level of expressed mRNA in the presence of chemical substance/The level of expressed mRNA in the absence of chemical substance,yeast gene YPL223C (stress protein genes),29.4
same,The level of expressed mRNA in the presence of chemical substance/The level of expressed mRNA in the absence of chemical substance,"yeast gene YPL272C, cultured two hours with the chemical substance",1.2
same,The level of expressed mRNA in the presence of chemical substance/The level of expressed mRNA in the absence of chemical substance,"yeast gene YPL280W, cultured two hours with substance",49.8
same,The level of expressed mRNA in the presence of chemical substance/The level of expressed mRNA in the absence of chemical substance,"yeast gene YPR023C, cultured two hours with substance",4.4
same,The level of expressed mRNA in the presence of chemical substance/The level of expressed mRNA in the absence of chemical substance,"yeast gene YPR079W, cultured two hours with substance",1.7
same,The level of expressed mRNA in the presence of chemical substance/The level of expressed mRNA in the absence of chemical substance,"yeast gene YPR150W, cultured two hours with the chemical substance",1.2
same,The level of expressed mRNA in the presence of chemical substance/The level of expressed mRNA in the absence of chemical substance,"yeast gene YPR151C, cultured two hours with substance",3.0
same,The level of expressed mRNA in the presence of chemical substance/The level of expressed mRNA in the absence of chemical substance,yeast gene YPR167C,76.6
